Results reported in patent US4985428A, “Isoxazoles with nootropic activity” (Zambon Group S.p.A., priority 1987, dated 1991).
Like-named read-outs stand apart in the source and are kept apart here.

System: electroshock (ECS) amnesia in rat
Assay: electroshock (ECS) amnesia test in rat
Type: in vivo
Conditions: male rats, dose improving retention time by 50% of Δt vs ECS control
Protocol: The compounds of formula I are active on central nervous system and they can be used in pharmaceutical field as nootropics. By the electroshock (ECS) amnesia test, described in example 8, in rat the pharmacological activity of the compounds object of the present invention was evaluated in comparison with the activity of Piracetam and Aniracetam. Pharmacodynamic evaluation: electroshock (ECS) amnesia test in rat Male rats weighing 130-150 g and fasting for at least 12 hours before the beginning of the test were used. The test consisted in two experiments with a resting interval of 24 hours between them. First experiment: training session The animals were trained to associate the passage from a light partition to a dark one, in a suitable box, with a noxious stimulation that is an electric stimulation through an electrified grid (foot-shock: 1 mA for 10 seconds). Second experiment: retention session The ability of the animals to remember was evaluated as the time utilized to repeat the passage through the partitions (retention time). Evaluation of the retention time in control groups of animals The test was carried out first on two groups of animals as control. […] Fixing 60 seconds as time-limit for performing the second experiment, the average time (retention time) utilized for the passage was 54 seconds for the control and 32 seconds for the ECS control. Evaluation of the retention time in groups of treated animals Groups of 20 rats underwent the training session, the treatment for inducing amnesia and the retention session after administration of the compounds object of the present invention and of the reference compounds, Piracetam and Aniracetam. The administration was carried out 30 minutes before the training session in case of intraperitoneal administration (i.p.) and 60 minutes before in case of administration by oral route. At least three doses each compound and each administration route were tested. The difference between the retention time of the control and the retention time of the ECS control was considered as reference (Δt) and it was fixed, as percentage, equal to 100. In the groups of animals which were treated and underwent ECS the activity against amnesia of the compounds object of the present invention was expressed as ED50 that is as the dose of compound able to give an improvement of the retention time equal to 50% of the reference interval (Δt) in comparison with the ECS control.

[1] = ip, intraperitoneal, 30 minutes before training session, read-out: ED50 i.p.
[2] = oral route, 60 minutes before training session, read-out: ED50 os

Compound	ED50 [1] [µmol/kg]	ED50 [2] [µmol/kg]
COc1ccc(C(=O)N2CCCC2=O)cc1 [Aniracetam, 1-(4-methoxy-benzoyl)-2-pyrrolidinone, reference compound]	353	1110
O=C(O)CCCNC(=O)c1cc(Br)no1 [Compound 1, N-(3-bromo-5-isoxazolecarbonyl)-4-aminobutyric acid]	102	290
O=C(O)CCCNC(=O)c1cc(Cl)no1 [Compound 2, N-(3-chloro-5-isoxazolecarbonyl)-4-aminobutyric acid]	160	260
COc1cc(C(=O)NCCCC(=O)O)on1 [Compound 3, N-(3-methoxy-5-isoxazolecarbonyl)-4-aminobutyric acid]	276	868
Cc1cc(C(=O)NCCCC(=O)O)on1 [Compound 4, N-(3-methyl-5-isoxazolecarbonyl)-4-aminobutyric acid]	202	383
O=C(NCCCC(=O)N1CCCC1)c1cc(Br)no1 [Compound 8, N-[4-oxo-4-(1-pyrrolidinyl)butyl]-3-bromo-5-isoxazolecarboxamide]	25	80
CCOC(=O)CNC(=O)CCCNC(=O)c1cc(Br)no1 [Compound 12, Ethyl N-[N-(3-bromo-5-isoxazolecarbonyl)-4-aminobutyroyl]glicinate]	171	1000
O=C(O)CCCNC(=O)CCCNC(=O)c1cc(Br)no1 [Compound 19, N-[N-(3-bromo-5-isoxazolecarbonyl)-4-aminobutyroyl]-4-aminobutyric acid]		261
O=C(NCCCC(=O)N1CCCC1=O)c1cc(Br)no1 [Compound 21, 1-[N-(3-bromo-5-isoxazolecarbonyl)-4-aminobutyroyl]-2-pyrrolidinone]		254
NC(=O)CN1CCCC1=O [Piracetam, 2-pyrrolidinoneacetamide, reference compound]	329	1550
